Read-outs that look alike come from different tables or passages of the source.

Data set [1] is described as follows: Compartmental model of catechin kinetics from plasma and urine pharmacokinetic data after ingestion of GTE confection. It counts as in vivo, healthy adults. An excerpt: Data for the present study were obtained from our prior investigation of the pharmacokinetics of green tea polyphenols in healthy adults. The study protocol was approved by the Biomedical Institutional Review Board at Ohio State University (#2017H0246) and registered at ClinicalTrials.gov (NCT03413735). In brief, 19 healthy adults (10 males and 9 females; 27 ± 2 y; 22 ± 0 kg/m^2) who were normotensive (systolic blood pressure, 112.1 ± 2.3 mmHg and diastolic blood pressure, 72.5 ± 1.6 mmHg) normoglycemic (fasting glucose, 92.3 ± 1.8 mg/dL) and normolipidemic (total cholesterol, 181.1 ± 7.8 mg/dL and triglyceride 61.7 ± 7.5 mg/dL) completed the study in the Columbus, Ohio area. Participants were non-smokers, non-users of dietary supplements, non-regular tea drinkers (<2 cups/wk), consumed <3 alcoholic drinks/d, non-pregnant or non-lactating, not using any medications or antibiotics, and had no history of gastrointestinal disorders or surgeries.
Complete details of the pharmacokinetic study were reported in [24]. In brief, participants abstained from polyphenol-rich foods for 3 d. In the fasting state (10–12 h) on day 4, participants voided their bladder, and a catheter was inserted into the antecubital vein to collect blood samples at baseline (0 h) and at 0.25, 0.5, 1, 2, 3, 5, 8, 10, and 12 h post-ingestion of a confection formulated with catechin-rich GTE. Urine was collected in timed intervals from 0–4, 4–8, 8–12, and 12–24 h (Figure 2). Participants received standardized meals at 4 h (11:00), 6 h (13:00) and 12 h (19:00) following confection ingestion. Snacks (e.g., pretzels, crackers) were also provided between 13:00–19:00. All foods were devoid of polyphenols and provided to participants in a eucaloric manner based on estimated energy requirements using the Harris–Benedict formula [25]. Controlled meals were designed to provide 48–55% of energy from carbohydrates, 15–20% from proteins, and 20–35% from fats. No additional foods or beverages, except water, were consumed by participants during the 24 h trial period.
GTE confections were developed as an alternative delivery system for catechins because Americans prefer catechin-deplete black tea over catechin-rich green tea. Confections were prepared in-house and formulated with 84.5% water, 2% sucrose, 6% gelatin, 0.5% citric acid, 6% lime-flavored gelatin, and 1% decaffeinated GTE powder. Confections were prepared within 24 h of the participants’ pharmacokinetics trial and stored at 4 °C. Each participant ingested 2 confections (each 25 g and ~2.5″ cubed), which contained 0.5 g GTE (Sunphenon 90 LB, Taiyo International, Inc., Minneapolis, MN, USA) to provide 445 mg total catechins (290 mg EGCG, 87 mg EGC, 39 mg EC, 28 mg ECG). The catechin content of all confections was confirmed by HPLC analysis. Based on brewed green tea (250 mL prepared with 2.2 g of dry tea leaves) containing ~180 mg total catechins, GTE at 0.5 g approximates 2.5 cups of green tea.
Biospecimen handling and preservation of catechins concentrations in plasma and urine were described. In brief, venous plasma was collected in heparinized tubes, while urine was collected in sterilized containers. Samples were preserved by adding a solution of acetic acid, ascorbic acid, and EDTA, snap-frozen in liquid nitrogen and stored at −80 °C until analyzed. Plasma and urinary catechins (EGCG, EGC, ECG, EC) were analyzed by LC-MS following enzymatic hydrolysis and extraction as reported.
Tissue-specific kinetics of each catechin were determined by model-based compartmental analysis using the Windows version of Simulation, Analysis, and Modeling software (WinSAAM version 3.0.8). The observed data were expressed as a fraction of the ingested dose, i.e., the mass of catechins measured in plasma/urine at specified times divided by the mass of the ingested catechin dose. […]

For data set [2] the following is noted: in vivo; cited from earlier work.
In another data set the test system is Caco-2 monolayer. As to conditions: cited from earlier work.
In a further data set the test system is pancreatic tumor cells. As to conditions: cited from earlier work.
For data set [3] the following is noted: in vitro; cited from earlier work.
Data set [4] concerns nonalcoholic steatohepatitis. The arrangement: method as in PMID 32688217. The conditions noted are these: obese mice, equal doses in diet; cited from earlier work.
For data set [5] the following is noted: alkaline pH; cited from earlier work.
[6] abbreviates: 0.5 g GTE confection, n = 19, two-way ANOVA with Tukey's post-hoc.
The mark [7] stands for this setting: fractional catabolic rate from plasma, not statistically significant.

For the compound `Oc1cc(O)c2c(c1)O[C@H](c1ccc(O)c(O)c1)[C@H](O)C2` [EC, epicatechin], in data set [1] (setting [6]), the “fractional catabolic rate (FCR), fraction of compound lost irreversibly from plasma per min, rank order” value (from here on “fractional catabolic rate … per min, rank order”) is given as “EGC > EGCG = EC > ECG” and the “plasma residence time, rank order” value is listed as “ECG > EC = EGCG > EGC”. Also, the “mean FCR higher in females compared with males” value in data set [1] (setting [7]) was 9%. In data set [1] (n = 19), the “fractional transfer rate from plasma to extravascular tissues, rank order” value is on record as “EGC > EGCG > EC > ECG”; the “fractional transfer rate from plasma to kidneys, rank order” value was “EGC = EC > EGCG = ECG”; the “fractional transfer rate from the liver to plasma, rank order” value (shortened to “fractional transfer rate from the liver”) is listed as “EGC > EC > EGCG = ECG”. Further, the “fraction present in human plasma following oral administration of green tea” value (from here on “fraction present”) in data set [2] was 1.1%. The “basal-to-apical transport of catechins, rank order” value (shortened to “basal-to-apical transport”) with Caco-2 monolayer (Caco-2 cell model) is on record as “EC > EGC > ECG ≈ EGCG”.

As to `O=C(O[C@@H]1Cc2c(O)cc(O)cc2O[C@@H]1c1ccc(O)c(O)c1)c1cc(O)c(O)c(O)c1` [ECG, epicatechin gallate], in data set [1] (setting [6]), the “fractional catabolic rate … per min, rank order” value is “EGC > EGCG = EC > ECG” and the “plasma residence time, rank order” value is “ECG > EC = EGCG > EGC”. Also, the “fractional transfer from the small intestine to the liver” value in data set [1] (ECG compared with EC) is “slower”. Besides, the “fractional transfer from kidneys to urine” value in data set [1] (ECG vs. EC) is given as “slower”. Moreover, in data set [1] (compared with other catechins), the “fractional transfer rate from the upper gastrointestinal tract to the small intestine” value is recorded as “faster”. In data set [1] (setting [7]), the “mean FCR higher in females compared with males” value amounted to 5%. Also, in data set [1] (n = 19), the “fractional transfer rate from plasma to extravascular tissues, rank order” value was “EGC > EGCG > EC > ECG”; the “fractional transfer rate from plasma to kidneys, rank order” value was “EGC = EC > EGCG = ECG”; the “fractional transfer rate from the liver” value was “EGC > EC > EGCG = ECG”. Moreover, the “anti-inflammatory activity compared with EGCG” value with pancreatic tumor cells is listed as “superior”. Besides, the “basal-to-apical transport” value in the data set with Caco-2 monolayer (Caco-2 cell model) is reported as “EC > EGC > ECG ≈ EGCG”.

As for catechin gallate [reference compound], in the data set with pancreatic tumor cells, the “anti-inflammatory activity compared with EGCG” value is on record as “superior”.

`O=C(O[C@@H]1Cc2c(O)cc(O)cc2O[C@@H]1c1cc(O)c(O)c(O)c1)c1cc(O)c(O)c(O)c1` [EGCG, epigallocatechin gallate]: in data set [1] (setting [6]), the “fractional catabolic rate … per min, rank order” value is given as “EGC > EGCG = EC > ECG” and the “plasma residence time, rank order” value was “ECG > EC = EGCG > EGC”. Besides, the “mean FCR higher in females compared with males” value in data set [1] (setting [7]) came to 33%. For the same compound, in data set [1] (n = 19), the “fractional transfer rate from plasma to extravascular tissues, rank order” value is recorded as “EGC > EGCG > EC > ECG”; the “fractional transfer rate from plasma to kidneys, rank order” value was “EGC = EC > EGCG = ECG”; the “fractional transfer rate from the liver” value is recorded as “EGC > EC > EGCG = ECG”. In addition, the “free radical scavenging activity” value in data set [3] is reported as “superior”. Besides, the “alleviating pathological evidence of nonalcoholic steatohepatitis” value in data set [4] was “more potent”. Moreover, the “fraction present” value in data set [2] is listed as 0.16%. The “basal-to-apical transport” value in the data set on Caco-2 monolayer (Caco-2 cell model) is listed as “EC > EGC > ECG ≈ EGCG”. In addition, the “loss by degradation in alkaline environment of the small intestine compared with ECG and EC” value in data set [5] is given as “greater loss”.

Take `Oc1cc(O)c2c(c1)OC(c1ccc(O)c(O)c1)C(O)C2` (single isomer, unassigned; (+)) [catechin, (+)-catechin]: the “alleviating pathological evidence of nonalcoholic steatohepatitis” value in data set [4] is reported as “effective”.

With `Oc1cc(O)c2c(c1)O[C@H](c1cc(O)c(O)c(O)c1)[C@H](O)C2` [EGC, epigallocatechin], the “mean FCR higher in females compared with males” value in data set [1] (both, human, in vivo) amounted to 13%. In addition, in data set [1] (in vivo), the “fractional catabolic rate … per min, rank order” value is on record as “EGC > EGCG = EC > ECG”; the “fractional transfer rate from plasma to extravascular tissues, rank order” value is “EGC > EGCG > EC > ECG”; the “fractional transfer rate from plasma to kidneys, rank order” value is on record as “EGC = EC > EGCG = ECG”; the “fractional transfer rate from the liver” value was “EGC > EC > EGCG = ECG”. Moreover, in data set [1] (in vivo), the “plasma residence time, rank order” value is reported as “ECG > EC = EGCG > EGC”. The “fraction present” value in data set [2] was 0.58%. The “basal-to-apical transport” value in the data set on Caco-2 monolayer is “EC > EGC > ECG ≈ EGCG”.

The record behind these values is publication PMC10536004, “Gallation and B-Ring Dihydroxylation Increase Green Tea Catechin Residence Time in Plasma by Differentially Affecting Tissue-Specific Trafficking: Compartmental Model of Catechin Kinetics in Healthy Adults” (Nutrients, 2023).
